According to PubChem BioAssay (NCI):
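In this assay, cells in 96-well plates receive the compound at five concentrations for 48 hours. Endpoints are linearly interpolated between the surrounding concentrations. Here, GI50 denotes the concentration required for 50% inhibition of growth. Definition used: TGI = concentration required for complete inhibition of growth.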

Tests used:
Assay in all cases: NCI anticancer screen, dose series, 48 h
NCI-H460 lung = test system: NCI-H460 lung
SK-MEL-2 melanoma = test system: SK-MEL-2 melanoma
LOX IMVI melanoma = test system: LOX IMVI melanoma
SK-OV-3 ovarian = test system: SK-OV-3 ovarian
MDA-MB-435 = test system: MDA-MB-435
A498 renal = test system: A498 renal
MCF7 breast = test system: MCF7 breast
COLO 205 colon = test system: COLO 205 colon
MDA-MB-231 breast = test system: MDA-MB-231 breast
OVCAR-8 ovarian = test system: OVCAR-8 ovarian
ACHN renal = test system: ACHN renal
HT29 colon = test system: HT29 colon
KM12 colon = test system: KM12 colon
HL-60(TB) leukemia = test system: HL-60(TB) leukemia
U251 CNS = test system: U251 CNS
HS 578T breast = test system: HS 578T breast
K-562 leukemia = test system: K-562 leukemia
SF-268 CNS = test system: SF-268 CNS
MOLT-4 leukemia = test system: MOLT-4 leukemia
EKVX NSCLC = test system: EKVX NSCLC
NCI-H23 lung = test system: NCI-H23 lung
SR leukemia = test system: SR leukemia
SW-620 colon = test system: SW-620 colon
OVCAR-3 ovarian = test system: OVCAR-3 ovarian
UACC-257 melanoma = test system: UACC-257 melanoma
DU-145 prostate = test system: DU-145 prostate
IGROV1 ovarian = test system: IGROV1 ovarian
SN12C renal = test system: SN12C renal

**Q.** Which results are given for COc1cc(-c2csc(NC(=O)Nc3cc(Cl)cc(Cl)c3)n2)cc(OC)c1OC?
**A.** GI50 (NCI-H460 lung): 1.81 µM; TGI (NCI-H460 lung): 3.52 µM; GI50 (SK-MEL-2 melanoma): 2.61 µM; TGI (SK-MEL-2 melanoma): 7.97 µM; GI50 (LOX IMVI melanoma): 1.93 µM; TGI (LOX IMVI melanoma): 3.96 µM; GI50 (SK-OV-3 ovarian): 1.86 µM; TGI (SK-OV-3 ovarian): 3.75 µM; GI50 (MDA-MB-435): 1.9 µM; TGI (MDA-MB-435): 3.96 µM; GI50 (A498 renal): 1.42 µM; TGI (A498 renal): 3.1 µM; GI50 (MCF7 breast): 2.01 µM; TGI (MCF7 breast): 5.42 µM; GI50 (COLO 205 colon): 3.11 µM; TGI (COLO 205 colon): 11.4 µM; GI50 (MDA-MB-231 breast): 1.92 µM; TGI (MDA-MB-231 breast): 4.12 µM; GI50 (OVCAR-8 ovarian): 1.84 µM; TGI (OVCAR-8 ovarian): 3.87 µM; GI50 (ACHN renal): 1.71 µM; TGI (ACHN renal): 3.15 µM; GI50 (HT29 colon): 2.02 µM; TGI (HT29 colon): 4.41 µM; GI50 (KM12 colon): 2.48 µM; TGI (KM12 colon): 8.14 µM; GI50 (HL-60(TB) leukemia): 3.65 µM; TGI (HL-60(TB) leukemia): > 100 µM; GI50 (U251 CNS): 1.68 µM; TGI (U251 CNS): 3.15 µM; GI50 (HS 578T breast): 1.94 µM; TGI (HS 578T breast): 4.91 µM; GI50 (K-562 leukemia): 4.4 µM; TGI (K-562 leukemia): > 100 µM; GI50 (SF-268 CNS): 2.81 µM; TGI (SF-268 CNS): 10.6 µM; GI50 (MOLT-4 leukemia): 3.9 µM; TGI (MOLT-4 leukemia): > 100 µM; GI50 (EKVX NSCLC): 1.87 µM; TGI (EKVX NSCLC): 4.22 µM; GI50 (NCI-H23 lung): 1.94 µM; TGI (NCI-H23 lung): 4.5 µM; GI50 (SR leukemia): 2 µM; TGI (SR leukemia): 6.61 µM; GI50 (SW-620 colon): 1.97 µM; TGI (SW-620 colon): 4.02 µM; GI50 (OVCAR-3 ovarian): 1.8 µM; TGI (OVCAR-3 ovarian): 3.26 µM; GI50 (UACC-257 melanoma): 2.98 µM; TGI (UACC-257 melanoma): 8.81 µM; GI50 (DU-145 prostate): 1.77 µM; TGI (DU-145 prostate): 3.35 µM; GI50 (IGROV1 ovarian): 2.03 µM; TGI (IGROV1 ovarian): 4.04 µM; GI50 (SN12C renal): 1.78 µM; TGI (SN12C renal): 3.28 µM
